Experimental data taken from patent US20260130377A1 (SYNGENTA CROP PROTECTION AG, priority 2022, published 2026).

Key:
Botrytis cinerea = test: liquid culture assay, 96 well plate, Botrytis cinerea; format: cell-based
Description: (§1) Cyclothiazomycin C was produced as disclosed in WO2015191789. A stock solution for cyclothiazomycin C was produced in DMSO (max. 10 mg/ml). Malonomicin was produced according to Law et al, 2018 (Nature Catalys is|VOL 1|DECEMBER 2018|977-984). A stock solution of malonomicin was produced in water plus 0.025% Tween®20.
(§2) Assays to test efficacy of mixtures of cyclothiazomycin C in combination with malonomicin on the control of fungal pathogens in a liquid culture assay were designed for a 96 well plate.
(§3) A master plate with 10× concentrated solution of the compound stock solutions diluted in water plus 0.025% Tween20 was prepared. The concentration of DMSO (from the stock of cyclothiazomycin C) and Tween20 was kept constant in all cells of th the master plate. 10 μl was transferred from the master plate to a 96 well test plate. The nutrient broth containing the fungal spores/mycelia fragments was then added to the test plate to give an end concentration of 1× for the tested compounds (as outlined in Table 1). The test plates were incubated in the dark at 24° C. and 96% rh. The inhibition of fungal growth was determined photometrically after ca. 3 days, and percent fungal growth reduction relative to the untreated check was calculated. Efficacy of the mixtures was tested on different fungal species:
Botrytis cinerea (EPPO Code: BOTRCI)
Conidia of the fungus from cryogenic storage were directly mixed into nutrient broth (Vogel's minimal media).

Puccinia recondita [1] = test: wheat leaf disc assay, Puccinia recondita, preventive spray timing; format: in vivo
Description: (§4) Cyclothiazomycin C was produced as disclosed in WO2015191789. A stock solution for cyclothiazomycin C was produced in DMSO (max. 10 mg/ml). Malonomicin was produced according to Law et al, 2018 (Nature Catalys is|VOL 1|DECEMBER 2018|977-984). A stock solution of malonomicin was produced in water plus 0.025% Tween20.
(§5) Assays to test efficacy of mixtures of cyclothiazomycin C in combination with malonomicin on the control of fungal pathogens in a leaf disc assay were designed for two plates.
(§6) A first set of master plates with 1× concentrated spray solution of the cyclothiazomycin C stock diluted in water with concentrations according to Table 11 or Table 12, respectively, was prepared. Each well contained 2% DMSO and 0.025% Tween20. Accordingly, a second set of master plates with 1× concentrated malonomicin stock diluted in water was prepared. Each well of the second set contained 0.025% Tween20. Leaf segments placed on agar in plates are sprayed with 8 ul of solution from the master plate containing cyclothiazomycin C and the leaf segments were let to dry, followed 2 hours later by 8 ul of solution from the master plate containing malonomicin. After second sprays have dried, leaf segments are infected with fungal spores to obtain a preventive application timing. Alternatively, leaf segments infected one day before spray of the compounds are used, resulting in a curative spray timing. In addition, several plates were produced where leaf segments were sprayed 2× in absence of test compound (with only DMSO and Tween20), representing the untreated check samples. For each leaf segment percent leaf coverage of disease symptoms was assessed. Percent leaf coverage reduction relative to the untreated check was calculated. Efficacy of the mixtures was tested in duplicate. Reported efficacy values are the average of two replicate results.
Puccinia recondita (EPPO Code: PUCCRE) with Preventive Spray Timing.
Wheat (cultivar Kanzler) leaf segments are placed on agar in multiwell plates and sprayed with test solutions (8 ul per well). After drying, the leaf disks are inoculated with a spore suspension of the fungus. After appropriate incubation the activity of a compound is assessed 8 dpi (days after inoculation) as preventive fungicidal activity.

Zymoseptoria tritici = test: liquid culture assay, 96 well plate, Zymoseptoria tritici; format: cell-based
Description: as §1, §2, §3
Zymoseptoria tritici (EPPO Code: SEPTTR)
(§7) Conidia of the fungus from cryogenic storage were directly mixed into nutrient broth (PDB: potato dextrose broth).

Fusarium culmorum = test: liquid culture assay, 96 well plate, Fusarium culmorum; format: cell-based
Description: as §1, §2, §3
Fusarium culmorum (EPPO Code: FUSACU)
as §7

genus Bacillus = settings: quoted from WO2015191789, page 31; cited from earlier work
Puccinia recondita [2] = test: wheat leaf disc assay, Puccinia recondita, curative spray timing; format: in vivo
Description: as §4, §5, §6
Puccinia recondita (EPPO Code: PUCCRE) with Curative Spray Timing.
Wheat (cultivar Kanzler) leaf segments are placed on agar in multiwell plates. The leaf disks are then inoculated with a spore suspension of the fungus. One day after inoculation the test solution is sprayed (8 ul per well). After appropriate incubation the activity of a compound is assessed 8 dpi (days after inoculation) as curative fungicidal activity

Microdochium nivale = test: liquid culture assay, 96 well plate, Microdochium nivale; format: cell-based
Description: as §1, §2, §3
Microdochium nivale (EPPO Code: MONGNI)
as §7

[3] = tested on: a variety of fungal strains; settings: quoted from WO2015191789, page 31; cited from earlier work
[4] = cyclothiazomycin C 1.56 ppm solo
[5] = cyclothiazomycin C 3.125 ppm solo
[6] = cyclothiazomycin C 6.25 ppm solo
[7] = cyclothiazomycin C 12.5 ppm solo
[8] = cyclothiazomycin C 100 ppm solo
[9] = cyclothiazomycin C 3.13 ppm solo
[10] = cyclothiazomycin C 200 ppm solo

For `C=C1NC(=O)CNC(=O)[C@H](CCCCN)NC(=O)[C@@]2(C)NC(=O)/C(=C/C)NC(=O)[C@H]3CSC(=N3)[C@@H](CC(N)=O)NC(=O)c3ccc(nc3[C@@H](C)NC(=O)[C@@H]3CCCN3C1=O)-c1nc(cs1)C1=N[C@H](CS1)C(=O)NC(=C)c1nc(cs1)-c1nc(cs1)C1=N[C@@H](CS1)C(=O)N[C@@H](C(=O)O)CS2` [cyclothiazomycin C], the “control of fungal growth” value (Botrytis cinerea; [4]) was 20%, the “control of fungal growth” value (Botrytis cinerea; [5]) was 20% and the “control of fungal growth” value (Botrytis cinerea; [6]) was 20%. The “control of fungal growth” value (Botrytis cinerea; [7]) was 20%, the “control of fungal growth” value (Botrytis cinerea; cyclothiazomycin C 25 ppm solo) was 20% and the “control of fungal growth” value (Botrytis cinerea; cyclothiazomycin C 50 ppm solo) was 20%. The “control of fungal growth” value (Botrytis cinerea; [8]) was 20%, the “control of fungal growth (% reduction of symtoms on the leaf segment)” value (Puccinia recondita [1]; [9]) was 0% and the “control of fungal growth (% reduction of symtoms on the leaf segment)” value (Puccinia recondita [1]; [6]) was 0%. For the same molecule, the “control of fungal growth (% reduction of symtoms on the leaf segment)” value (Puccinia recondita [1]; [7]) was 10%, the “control of fungal growth (% reduction of symtoms on the leaf segment)” value (Puccinia recondita [1]; cyclothiazomycin C 25 ppm solo) was 95% and the “control of fungal growth (% reduction of symtoms on the leaf segment)” value (Puccinia recondita [1]; cyclothiazomycin C 50 ppm solo) was 95%. The “control of fungal growth (% reduction of symtoms on the leaf segment)” value (Puccinia recondita [1]; [8]) was 95%, the “control of fungal growth (% reduction of symtoms on the leaf segment)” value (Puccinia recondita [1]; [10]) was 100% and the “control of fungal growth” value (Zymoseptoria tritici; [4]) was 70%. The “control of fungal growth” value (Zymoseptoria tritici; [5]) was 70%, the “control of fungal growth” value (Zymoseptoria tritici; [6]) was 70% and the “control of fungal growth” value (Zymoseptoria tritici; [7]) was 70%. For the same molecule, the “control of fungal growth” value (Zymoseptoria tritici; cyclothiazomycin C 25 ppm solo) was 90%, the “control of fungal growth” value (Zymoseptoria tritici; cyclothiazomycin C 50 ppm solo) was 90% and the “control of fungal growth” value (Zymoseptoria tritici; [8]) was 100%. The “control of fungal growth” value (Fusarium culmorum; [4]) was 20%, the “control of fungal growth” value (Fusarium culmorum; [5]) was 20% and the “control of fungal growth” value (Fusarium culmorum; [6]) was 20%. The “control of fungal growth” value (Fusarium culmorum; [7]) was 20%, the “control of fungal growth” value (Fusarium culmorum; cyclothiazomycin C 25 ppm solo) was 20% and the “control of fungal growth” value (Fusarium culmorum; cyclothiazomycin C 50 ppm solo) was 20%. For the same molecule, the “control of fungal growth” value (Fusarium culmorum; [8]) was 20%, the antimicrobial inhibitory activity (genus Bacillus) was “greatest inhibitory activity” and the “control of fungal growth (% reduction of symtoms on the leaf segment)” value (Puccinia recondita [2]; [9]) was 0%. For the same molecule, the “control of fungal growth (% reduction of symtoms on the leaf segment)” value (Puccinia recondita [2]; [6]) was 10%, the “control of fungal growth (% reduction of symtoms on the leaf segment)” value (Puccinia recondita [2]; [7]) was 0% and the “control of fungal growth (% reduction of symtoms on the leaf segment)” value (Puccinia recondita [2]; cyclothiazomycin C 25 ppm solo) was 0%. For the same molecule, the “control of fungal growth (% reduction of symtoms on the leaf segment)” value (Puccinia recondita [2]; cyclothiazomycin C 50 ppm solo) was 0%, the “control of fungal growth (% reduction of symtoms on the leaf segment)” value (Puccinia recondita [2]; [8]) was 0% and the “control of fungal growth (% reduction of symtoms on the leaf segment)” value (Puccinia recondita [2]; [10]) was 0%. For the same molecule, the “control of fungal growth” value (Microdochium nivale; [4]) was 70%, the “control of fungal growth” value (Microdochium nivale; [5]) was 70% and the “control of fungal growth” value (Microdochium nivale; [6]) was 70%. The “control of fungal growth” value (Microdochium nivale; [7]) was 70%, the “control of fungal growth” value (Microdochium nivale; cyclothiazomycin C 25 ppm solo) was 90% and the “control of fungal growth” value (Microdochium nivale; cyclothiazomycin C 50 ppm solo) was 90%. For the same molecule, the “control of fungal growth” value (Microdochium nivale; [8]) was 90% and the “growth inhibitory action toward a variety of fungal strains” value [3] was “none was observed”.
